*1 amine or outer side, *2 acyl side, *3 side chain or, on linkers, in order; H or OH if unused. Where a SMILES comes first, the peptide text is derived from it. Bridges are numbered along the chain shown (N, C = ends). Roman numbers before positions name the chains, in order. [ ]: non-standard residue; d: D form. Actinocin(9to1) = Cc1c2oc3c(C)ccc(C(=O)[*:1])c3nc-2c(C(=O)[*:2])c(N)c1=O; NMeV = CN[C@H](C(=O)O)C(C)C; Sar = CNCC(=O)O

Hepatotoxicity data for 31 molecules are collected here from ChEMBL document CHEMBL1697731, “Cheminformatics analysis of assertions mined from literature that describe drug-induced liver injury in different species” (Chem Res Toxicol, 2010).

Series [1] deals with Hepatotoxicity. The series can be described thus: Literature-mined compound from Fourches et al multi-species drug-induced liver injury (DILI) dataset, effect in humans. The following applies: human.
The test system of series [2] is Hepatotoxicity. Kind of series: Literature-mined compound from Fourches et al multi-species drug-induced liver injury (DILI) dataset, effect in non-rodents.
Series [3] deals with Hepatotoxicity. The series can be described thus: Literature-mined compound from Fourches et al multi-species drug-induced liver injury (DILI) dataset, effect in rodents. As to conditions: rodentia.

`Clc1cccc(Cl)c1N=C1NCCN1` [CLONIDINE]: the Hepatotoxicity result is given as “drug-induced liver injury reported” with Hepatotoxicity [1] (Liver), “no drug-induced liver injury reported” in the series on Hepatotoxicity [2] (Liver) and “drug-induced liver injury reported” with Hepatotoxicity [3] (Liver).
For `COC(=O)[C@H](c1ccccc1Cl)N1CCc2sccc2C1` [CLOPIDOGREL], the Hepatotoxicity result in the series on Hepatotoxicity [1] (Liver) is listed as “drug-induced liver injury reported”; in the series on Hepatotoxicity [2] (Liver), “no drug-induced liver injury reported”; in the series with Hepatotoxicity [3] (Liver), “drug-induced liver injury reported”.
As for `CCc1cc2c(s1)N(C)C(=O)CN=C2c1ccccc1Cl` [CLOTIAZEPAM], the results for the Hepatotoxicity result in the series with Hepatotoxicity [1], in the series with Hepatotoxicity [2] and in the series on Hepatotoxicity [3] were “drug-induced liver injury reported”, “no drug-induced liver injury reported” and “no drug-induced liver injury reported”, respectively.
As to `Clc1ccccc1C(c1ccccc1)(c1ccccc1)n1ccnc1` [CLOTRIMAZOLE], the Hepatotoxicity result in the series on Hepatotoxicity [1] was “no drug-induced liver injury reported”; in the series with Hepatotoxicity [2], “no drug-induced liver injury reported”; in the series with Hepatotoxicity [3], “drug-induced liver injury reported”.
Take `CN1CCN(C2=Nc3cc(Cl)ccc3Nc3ccccc32)CC1` [CLOZAPINE]: the Hepatotoxicity entry was “drug-induced liver injury reported” with Hepatotoxicity [1], “no drug-induced liver injury reported” in the series with Hepatotoxicity [2] and “no drug-induced liver injury reported” with Hepatotoxicity [3].
For the molecule `COC(=O)[C@H]1[C@@H](OC(=O)c2ccccc2)C[C@@H]2CC[C@H]1N2C` [COCAINE], the values for the Hepatotoxicity result in the series with Hepatotoxicity [1], with Hepatotoxicity [2] and in the series on Hepatotoxicity [3] were “drug-induced liver injury reported”, “no drug-induced liver injury reported” and “drug-induced liver injury reported”, respectively.
With `COc1ccc2c3c1O[C@H]1[C@@H](O)C=C[C@H]4[C@@H](C2)N(C)CC[C@@]341` [CODEINE], the Hepatotoxicity entry in the series on Hepatotoxicity [1] (Liver) is “drug-induced liver injury reported”; in the series with Hepatotoxicity [2] (Liver), “no drug-induced liver injury reported”; in the series with Hepatotoxicity [3] (Liver) it was “drug-induced liver injury reported”.
Take `COc1cc2c(c(OC)c1OC)-c1ccc(OC)c(=O)cc1[C@@H](NC(C)=O)CC2` [COLCHICINE]: the Hepatotoxicity entry in the series on Hepatotoxicity [1] is on record as “drug-induced liver injury reported”; in the series on Hepatotoxicity [2] it was “no drug-induced liver injury reported”; with Hepatotoxicity [3], “drug-induced liver injury reported”.
Take `Nc1ncnc2c1ncn2[C@@H]1O[C@H](CO)C[C@H]1O` [CORDYCEPIN]: the Hepatotoxicity entry was “no drug-induced liver injury reported” in the series with Hepatotoxicity [1], “no drug-induced liver injury reported” in the series on Hepatotoxicity [2] and “drug-induced liver injury reported” in the series with Hepatotoxicity [3].
Turning to `CC(=O)OCC(=O)[C@@]1(O)CC[C@H]2[C@@H]3CCC4=CC(=O)CC[C@]4(C)[C@H]3C(=O)C[C@@]21C` [CORTISONE ACETATE], the Hepatotoxicity result with Hepatotoxicity [1] is “no drug-induced liver injury reported”; in the series with Hepatotoxicity [2], “no drug-induced liver injury reported”; in the series on Hepatotoxicity [3], “drug-induced liver injury reported”.
`CC1=C(CC(=O)NCc2ccccc2)c2cc(F)ccc2/C1=C\c1ccncc1.Cl` [CP-461]: the Hepatotoxicity result in the series with Hepatotoxicity [1] is listed as “drug-induced liver injury reported”; with Hepatotoxicity [2], “no drug-induced liver injury reported”; with Hepatotoxicity [3] it was “no drug-induced liver injury reported”.
On to `CN(CC(=O)O)C(=N)N` [CREATINE], for which the Hepatotoxicity entry in the series on Hepatotoxicity [1] is recorded as “no drug-induced liver injury reported”; with Hepatotoxicity [2], “no drug-induced liver injury reported”; in the series on Hepatotoxicity [3] it was “drug-induced liver injury reported”.
As for `COc1cc(/C=C/C(=O)CC(=O)/C=C/c2ccc(O)c(OC)c2)ccc1O` [CURCUMIN], the results for the Hepatotoxicity result in the series with Hepatotoxicity [1], with Hepatotoxicity [2] and in the series on Hepatotoxicity [3] were “drug-induced liver injury reported”, “no drug-induced liver injury reported” and “drug-induced liver injury reported”, respectively.
Regarding `CC1CC(OC(=O)C(O)c2ccccc2)CC(C)(C)C1` (stereo not drawn) [CYCLANDELATE], the Hepatotoxicity entry with Hepatotoxicity [1] was “no drug-induced liver injury reported”; in the series on Hepatotoxicity [2] it was “no drug-induced liver injury reported”; with Hepatotoxicity [3], “drug-induced liver injury reported”.
In the case of `CCC1(C2=CCCCC2)C(=O)NC(=O)NC1=O` [CYCLOBARBITAL], the Hepatotoxicity entry in the series on Hepatotoxicity [1] is “no drug-induced liver injury reported”; with Hepatotoxicity [2], “no drug-induced liver injury reported”; in the series on Hepatotoxicity [3] it was “drug-induced liver injury reported”.
Turning to `CCC(C(=O)O)C1(O)CCCCC1` (stereo not drawn) [CYCLOBUTYROL], the Hepatotoxicity result with Hepatotoxicity [1] is recorded as “no drug-induced liver injury reported”; with Hepatotoxicity [2], “no drug-induced liver injury reported”; in the series with Hepatotoxicity [3], “drug-induced liver injury reported”.
As for `CC1=C2C[C@H]3[C@@H](CC=C4C[C@@H](O)CC[C@@]43C)[C@@H]2CC[C@]12O[C@@H]1C[C@H](C)CN[C@H]1[C@H]2C` [CYCLOPAMINE], the values for the Hepatotoxicity result in the series with Hepatotoxicity [1], with Hepatotoxicity [2] and in the series with Hepatotoxicity [3] were “drug-induced liver injury reported”, “no drug-induced liver injury reported” and “no drug-induced liver injury reported”, respectively.
In the case of `O=P1(N(CCCl)CCCl)NCCCO1` (stereo not drawn) [CYCLOPHOSPHAMIDE ANHYDROUS], the Hepatotoxicity result was “drug-induced liver injury reported” in the series on Hepatotoxicity [1] (Liver), “no drug-induced liver injury reported” with Hepatotoxicity [2] (Liver) and “drug-induced liver injury reported” in the series with Hepatotoxicity [3] (Liver).
`O=C(/C=C/c1ccc(O)c(O)c1)O[C@@H]1C[C@@](OC(=O)/C=C/c2ccc(O)c(O)c2)(C(=O)O)C[C@@H](O)[C@@H]1O` [CYNARIN]: the Hepatotoxicity entry in the series with Hepatotoxicity [1] is “no drug-induced liver injury reported”; in the series on Hepatotoxicity [2], “no drug-induced liver injury reported”; in the series with Hepatotoxicity [3], “drug-induced liver injury reported”.
Take `CN1CCC(=C2c3ccccc3C=Cc3ccccc32)CC1` [CYPROHEPTADINE]: the Hepatotoxicity entry in the series with Hepatotoxicity [1] is “drug-induced liver injury reported”; in the series with Hepatotoxicity [2], “no drug-induced liver injury reported”; in the series on Hepatotoxicity [3], “drug-induced liver injury reported”.
For `CC(=O)O[C@]1(C(C)=O)CC[C@H]2[C@@H]3C=C(Cl)C4=CC(=O)[C@@H]5C[C@@H]5[C@]4(C)[C@H]3CC[C@@]21C` [CYPROTERONE ACETATE], the Hepatotoxicity result in the series on Hepatotoxicity [1] is recorded as “drug-induced liver injury reported”; in the series on Hepatotoxicity [2] it was “no drug-induced liver injury reported”; with Hepatotoxicity [3], “drug-induced liver injury reported”.
`Nc1ccn([C@@H]2O[C@H](CO)[C@@H](O)[C@@H]2O)c(=O)n1` [CYTARABINE]: the Hepatotoxicity entry in the series on Hepatotoxicity [1] (Liver) is recorded as “drug-induced liver injury reported”; in the series with Hepatotoxicity [2] (Liver), “no drug-induced liver injury reported”; in the series with Hepatotoxicity [3] (Liver) it was “drug-induced liver injury reported”.
Turning to `CN(C)/N=N/c1[nH]cnc1C(N)=O` [DACARBAZINE], the results for the Hepatotoxicity entry in the series with Hepatotoxicity [1], in the series on Hepatotoxicity [2] and in the series with Hepatotoxicity [3] were “drug-induced liver injury reported”, “no drug-induced liver injury reported” and “no drug-induced liver injury reported”, respectively.
Regarding `Cc1c2oc3c(C)ccc(C(=O)N[C@@H]4C(=O)N[C@H](C(C)C)C(=O)N5CCC[C@H]5C(=O)N(C)CC(=O)N(C)[C@@H](C(C)C)C(=O)O[C@@H]4C)c3nc-2c(C(=O)N[C@@H]2C(=O)N[C@H](C(C)C)C(=O)N3CCC[C@H]3C(=O)N(C)CC(=O)N(C)[C@@H](C(C)C)C(=O)O[C@@H]2C)c(N)c1=O` [DACTINOMYCIN] (I: T[dV]P[Sar][NMeV] / II: T[dV]P[Sar][NMeV]; ester I:1-I:C, II:1-II:C; linker I:N-II:N via Actinocin(9to1)), the Hepatotoxicity entry with Hepatotoxicity [1], with Hepatotoxicity [2] and in the series with Hepatotoxicity [3] was “drug-induced liver injury reported” throughout.
With `C#C[C@]1(O)CC[C@H]2[C@@H]3CCC4=Cc5oncc5C[C@]4(C)[C@H]3CC[C@@]21C` [DANAZOL], the Hepatotoxicity result in the series with Hepatotoxicity [1] is listed as “drug-induced liver injury reported”; in the series on Hepatotoxicity [2], “no drug-induced liver injury reported”; with Hepatotoxicity [3], “no drug-induced liver injury reported”.
As to `O=C1c2cccc(O)c2C(=O)c2c(O)cccc21` [DANTHRON], the Hepatotoxicity entry in the series with Hepatotoxicity [1] was “no drug-induced liver injury reported”; in the series on Hepatotoxicity [2], “no drug-induced liver injury reported”; in the series with Hepatotoxicity [3], “drug-induced liver injury reported”.
Take `O=C1CN(/N=C/c2ccc(-c3ccc([N+](=O)[O-])cc3)o2)C(=O)[N-]1.[Na+]` [DANTROLENE SODIUM]: the Hepatotoxicity entry is on record as “no drug-induced liver injury reported” in the series with Hepatotoxicity [1], “no drug-induced liver injury reported” in the series on Hepatotoxicity [2] and “drug-induced liver injury reported” in the series with Hepatotoxicity [3].
Turning to `Nc1ccc(S(=O)(=O)c2ccc(N)cc2)cc1` [DAPSONE], the Hepatotoxicity result in the series with Hepatotoxicity [1] (Liver) is on record as “drug-induced liver injury reported”; in the series on Hepatotoxicity [2] (Liver), “no drug-induced liver injury reported”; in the series with Hepatotoxicity [3] (Liver), “no drug-induced liver injury reported”.
For the molecule `COc1cccc2c1C(=O)c1c(O)c3c(c(O)c1C2=O)C[C@@](O)(C(C)=O)C[C@@H]3O[C@H]1C[C@H](N)[C@H](O)[C@H](C)O1` [DAUNORUBICIN], the values for the Hepatotoxicity entry in the series on Hepatotoxicity [1], with Hepatotoxicity [2] and with Hepatotoxicity [3] were “drug-induced liver injury reported”, “no drug-induced liver injury reported” and “drug-induced liver injury reported”, respectively.
For the molecule `Nc1ncn([C@H]2C[C@H](O)[C@@H](CO)O2)c(=O)n1` [DECITABINE], the Hepatotoxicity result with Hepatotoxicity [1] was “drug-induced liver injury reported”; with Hepatotoxicity [2] it was “no drug-induced liver injury reported”; in the series on Hepatotoxicity [3], “no drug-induced liver injury reported”.
For `O=C(O)c1ccc(-n2nc(-c3ccccc3O)nc2-c2ccccc2O)cc1` [DEFERASIROX], the Hepatotoxicity result is “drug-induced liver injury reported” in the series on Hepatotoxicity [1], “no drug-induced liver injury reported” in the series on Hepatotoxicity [2] and “no drug-induced liver injury reported” with Hepatotoxicity [3].
